Test results as given in article PMC11878239, “Biochemical investigations using mass spectrometry to monitor JMJD6-catalysed hydroxylation of multi-lysine containing bromodomain-derived substrates” (RSC Chemical Biology, 2025).
Entries after “also recorded” stand apart in the source; their conditions may differ.

Assays:
full-length His6-JMJD6 [1] = biological target: T1, full-length His6-JMJD6 (Homo sapiens, UniProt Q6NYC1); test: SPE-MS kinetics of JMJD6-catalysed lysyl hydroxylation (2OG, Fe(II), LAA, BRD-derived peptides); format: biochemical; settings: for tri- or higher-order hydroxylation: 0.05 μM JMJD6, SPE-MS time courses
T1 construct: An enzyme mixture (10 μL) containing full-length His6-JMJD6 (5 μM; final concentration: 0.05 μM); made in house; host or cells: Escherichia coli BL21 (DE3), pET-28a(+) plasmid
Protocol: (§1) Recombinant human JMJD6 (full length with a N-terminal His6-tag) was produced in Escherichia coli BL21 (DE3) cells using a pET-28a(+) plasmid and purified by standard Ni(II)-affinity size-exclusion chromatography, as previously reported.[40] […] Purified JMJD6 was stored at −78 °C; fresh aliquots were used for all JMJD6 assays.
Peptides were used as 10 mM stock solutions in DMSO (Sigma-Aldrich; BioUltra grade).
(§2) Assay samples were aspirated under vacuum for 0.4 s, then loaded onto a C4 solid phase extraction (SPE) cartridge. After loading, the C4 SPE cartridge was washed with 0.1%v/v aqueous formic acid to remove non-volatile buffer salts (5 s, 1.5 mL min^−1). The peptide was eluted from the SPE cartridge with 0.1%v/v aqueous formic acid in 75/25v/v acetonitrile/water into the mass spectrometer (5 s, 1.6 mL min^−1) and the SPE cartridge re-equilibrated with 0.1%v/v aqueous formic acid (1 s, 1.25 mL min^−1).
Peaks corresponding to the m/z +5 charge states of the BRD-derived substrate peptide and the hydroxylated product peptides were extracted from the ion chromatogram and integrated using RapidFire Integrator 4.3.0 (Agilent). Peak area data were exported into Microsoft Excel and used to calculate the relative abundance of the mono-hydroxylated product peptide using the following equation: […]
The concentration of the mono-hydroxylated product peptide was calculated by multiplying the %-fraction of the mono-hydroxylated product peptide by the initial concentration of the substrate peptide employed in the assay. Initial reaction velocities were then calculated and fitted to a Michaelis–Menten plot using nonlinear regression (GraphPad Prism 5).

full-length His6-JMJD6 [2] = biological target: T1, full-length His6-JMJD6; test: SPE-MS kinetics of JMJD6 for O2; format: biochemical
Protocol: as §1
Assays to determine the kinetic parameters of JMJD6 for O2 were performed in 2 mL gas-tight glass vials (Sigma-Aldrich) in independent triplicates. 50 mM Tris buffer (pH 7.5; 0.95 mL) was incubated in a 2 mL gas-tight glass vial at 37 °C for 30 min with a fixed O2 concentration (in N2; specified in Fig S9, ESI ^†), adjusted using a mass flow controller. […] The JMJD6-catalysed reaction was performed at 37 °C at a fixed O2 concentration and was stopped after the reaction time specified (Fig. S9, ESI ^†) by the addition of 20%v/v aqueous formic acid (100 μL) and analysed by SPE-MS. The %-concentration of O2 in N2, adjusted with a mass flow controller, was converted into an O2 concentration [μM] by calibration using a standard (i.e., y[μM] = 9.026·x[%]).[100] Data were analysed by SPE-MS as described above to calculate apparent JMJD6 kinetic parameters for O2.

full-length His6-JMJD6 [3] = biological target: T1, full-length His6-JMJD6; test: SPE-MS time-course of JMJD6-catalysed hydroxylation of BRD-derived peptides; format: biochemical; settings: 0.05 μM JMJD6, 2 μM peptide, 2OG 200 μM, FAS 2 μM, LAA 100 μM, Tris 50 mM pH 7.5
Protocol: Fig. 2 JMJD6-catalysed hydroxylation of homologous 40 mer peptides derived from bromodomain-containing proteins BRD2, BRD3, and BRD4. (a)–(c) Red MS spectra: JMJD6-catalysed hydroxylation after 10 min of (a) BRD2_520–559, (b) BRD3_463–502, and (c) BRD4_511–550. Black MS spectra: no enzyme controls. (d)–(f) JMJD6-catalysed hydroxylation of (d) BRD2_520–559, (e) BRD3_463–502, and (f) BRD4_511–550 showing the relative abundance of the non-hydroxylated substrate (orange circles), mono-hydroxylated product (green squares), di-hydroxylated product (purple triangles) and tri-hydroxylated product (light blue diamonds) over time. Data are means of three independent runs (n = 3; means ± SD).
as §2, with “The JMJD6-catalysed hydroxylation of the BRD-derived substrate peptide was monitored at ambient temperature by SPE-MS using a RapidFire RF 365 high-throughput sampling robot (Agilent) attached to an iFunnel Agilent 6550 accurate mass quadrupole time-of-flight (Q-TOF) mass spectrometer, which was operated in the positive ionization mode. Assay” for “Assay”
Peaks corresponding to the m/z +5 charge states of the BRD-derived substrate peptide and the hydroxylated product peptides were extracted from the ion chromatogram and integrated using RapidFire Integrator 4.3.0 (Agilent). Peak area data were exported into Microsoft Excel and used to calculate the relative abundance of the mono-hydroxylated product peptide using the following equation:
% of mono-hydroxylated product peptide = 100 × (integral of mono-hydroxylated product peptide)/(integral of non-hydroxylated substrate peptide + sum of integrals of all hydroxylated product peptides). Note that for the time-period used to calculate initial reaction velocities, negligible amounts of multi-hydroxylated product peptide were observed (<5%); therefore, the sum of integrals of all hydroxylated product peptides ≈ the integral of the mono-hydroxylated product peptide.

[4] = retention on SPE cartridges; format: physicochemical; settings: C4 SPE cartridge
Source text: as §2, with “The JMJD6-catalysed hydroxylation of the BRD-derived substrate peptide was monitored at ambient temperature by SPE-MS using a RapidFire RF 365 high-throughput sampling robot (Agilent) attached to an iFunnel Agilent 6550 accurate mass quadrupole time-of-flight (Q-TOF) mass spectrometer, which was operated in the positive ionization mode. Assay” for “Assay”

With “LAELQEQLKAVHEQLAALSQPQQNKPKKKEKDKKEKKKEK [BRD4_511–550, 40-mer peptide fragment derived from human BRD4, JMJD6 substrate, prepared by SPPS]” as the sequence, how does the “tri- or higher-order hydroxylation” value (full-length His6-JMJD6 [1]; ambient temperature) read?
Its value is “negligible levels of BRD4_511–550 hydroxylations beyond mono-hydroxylation”.

What about the “tri- or higher-order hydroxylation” value (full-length His6-JMJD6 [1]; ambient temperature, listed as BRD4511-550) of the same sequence?
Its value is “No evidence for triple; also recorded: No evidence for triple (or higher order)”.

What about the “apparent maximum velocity v^app max” value (full-length His6-JMJD6 [1]; BRD peptide substrate varied, 0.05 μM full-length His6-JMJD6, 2OG 200 μM, FAS 2 μM, LAA 100 μM, 50 mM Tris pH 7.5, ambient temperature, mono-hydroxylation, substrate inhibition fit, mean ± SD n = 3) of the same sequence?
Its value is 5.8 ± 1.2 nM/s.

What about the K m (full-length His6-JMJD6 [1]; BRD peptide substrate varied, 0.05 μM full-length His6-JMJD6, 2OG 200 μM, FAS 2 μM, LAA 100 μM, 50 mM Tris pH 7.5, ambient temperature, substrate inhibition fit, mean ± SD n = 3, read-out: Michaelis constant Km (K^app m)) of the same sequence?
Its K m is 0.62 ± 0.26 µM.

And the “turnover number kcat (k^app cat)” value (full-length His6-JMJD6 [1]; BRD peptide substrate varied, 0.05 μM full-length His6-JMJD6, 2OG 200 μM, pH 7.5, SPE-MS, calculated from v^app max assuming active JMJD6 = total enzyme, n = 3)?
The value was 0.12 ± 0.02 s⁻¹.

What about the “catalytic efficiency kcat/Km” value (full-length His6-JMJD6 [1]; BRD peptide substrate varied, 0.05 μM full-length His6-JMJD6, 2OG 200 μM, pH 7.5, SPE-MS, n = 3) of the same sequence?
The value was 190000 ± 80000 M⁻¹ s⁻¹.

And the “relative abundance of mono-hydroxylated peptide at plateau” value (full-length His6-JMJD6 [1]; absence of LAA, after ~10 min, 50 nM JMJD6, 2OG 200 μM, FAS 2 μM, peptide 2 μM, pH 7.5, n = 3)?
The value was about 15%.

And the “substrate inhibition of JMJD6 catalysis” value (full-length His6-JMJD6 [1]; high substrate concentrations (>2 μM))?
Its value is “inhibit JMJD6 catalysis”.

And the “JMJD6-catalysed hydroxylation at low O2” value (full-length His6-JMJD6 [2]; [O2] < 2.5%)?
Its value is “inhibited at low oxygen concentrations; also recorded: sensitive to low O2 concentrations”.

What about the “di- or higher-order hydroxylation” value (full-length His6-JMJD6 [2]; varied O2, 37 °C, 60 or 90 s) of the same sequence?
Its value is “no evidence for di- (or higher order) hydroxylation”.

And the “number of hydroxylation products observed (+16 Da mass shifts)” value (full-length His6-JMJD6 [3]; initial time-course, n = 3)?
The value was “two”.

And the “hydroxylation by JMJD6 (in words)” value (full-length His6-JMJD6 [3]; time-course, SPE-MS)?
The value was “efficiently hydroxylated by isolated recombinant JMJD6; also recorded: mono-hydroxylated more efficiently than BRD3_463–502 whilst showing substantially lower levels of di-hydroxylation and no tri-hydroxylation by comparison with BRD2_520–559; also recorded: multiple hydroxylations”.

And the “retention on SPE cartridge” value [4]?
Its value is “efficiently retained on a C4 SPE cartridge”.
